The values that follow come from patent US8357407B2, “Agent for cutaneous photoprotection against UVA/UVB rays” (priority 2009, dated 2013).

Data set [1] has as its system rat skin under UVB radiation. The data set is described as follows: Second test: UVB-induced dermal erythema and sunburnt cells in rat skin. In kind it is in vivo. Also noted: key to presence or absence of erythema or its manifestations in the treated area, per animal: presence (+); absence (−). The method, then: They were acclimatized to the location where the tests were carried out during 7 days after being received. […] The animals were fed ad libitum with a standard rodent diet and running water during this period and during the experimental period. […] The products to be tested were applied directly on the skin as a gel. The test was conducted following the method described by Winder et al. “A Study of Pharmacological Influences of Ultraviolet Erythema in Guinea Pigs”. Arch. Int Pharmacodyn, 116: 261-292. 1958, and other authors such as Wendy, J et al. “The Local Antinociceptive and Topical Anti-inflammatory Effects of Propyl Gallate in Rodents”. Br. J. Pharmacol, 58: 573-581. 1976, and […]. et al. “Protective Effects of Silymarin Against Photocarcinogenesis in a Mouse Skin Model”. J. Natl. Cancer Inst. 89: 556-65. 1997, with slight modifications. The animals were shaved clean six days before the test to eliminate all traces of hair, leaving the skin on their backs completely bare. A morning (10:00 h) and evening (20:00 h) dosage regime for the substance to be tested or for the standard commenced on the first day of the test on a randomized and blind basis lasting 3 days. On the third day, after applying the corresponding morning treatments, the animals were placed and secured in the equipment's exposure platform. The animals were then placed 8 cm from the 4*40 W ultraviolet light source emitting at a fundamental frequency of 313 nm and in a range from approximately 290 to 350 nm, with an anti-UVC filter. The exposure was maintained until all animals received a total dosage of approximately 2.5 kJ/m2, with the irradiation dosis determined by means of an ultraviolet light detector. The backs of the animals were photographed 24 hours after the exposure, and the animals were sacrificed by cervical dislocation. The back skin was removed and a 2×2 cm fragment located under the area were the substance to be tested was applied was placed and maintained for 6 hours in a jar with 10% tamponated formalin, before initiating the paraffin inclusion process and preparation for the histological study. The preparations were observed under an optical microscope and the epidermal-dermal space was photographed at ×100 magnification in 5 different locations for each preparation. A count of sunburnt cells was made for each photograph, considering cells as sunburnt if they had hypereosinophilic cytoplasm with small dark and irregular dense nuclei different than those of its neighbors. The evaluation of the erythema was made on a positive/negative basis, obtaining the percentage of protected animals. The number of hypereosinophilic cells with pyknotic nuclei (sunburnt) was counted in the photographic fields for each of the five different sectors in each histological preparation. The sum of the five counts was considered as the value for each animal. […] The statistical significance of the differences was evaluated by means of non-parametric tests, such as the Fisher Test or the χ^2 (Chi Squared).

Data set [2] in a line: UV/VIS comparative spectral absorption. In kind it is physicochemical. From the text: The AEDA was subjected to a UV/VIS spectral analysis at 200-400 nm to determine the peak absorbency of the compounds with UV absorbing characteristics present in the AEDA. A SHIMADZU UV-160 photospectrometer was used for this purpose, with the samples diluted in ethanol until a visible reading in the spectrum was obtained.
The AEDA absorption spectra show maximum absorption at wavelengths under 240 nm. In the band from approximately 250 nm to 350 nm. AEDA offers stable absorbency between 0.75 and 1.5 UA that blocks a significant amount of UVC, UVB and the more energetic portion of UVA light. Part of its effects may therefore be due to a screen effect that prevents the luminous radiation from reaching the skin.
The first two are located before the UVC band, and the third appears above 285 nm and extends to almost 340 nm. This behavior is typical of the polyphenols present in numerous vegetals, which provide and an effective screen effect that protects plants from solar light. When comparing the concentrations required to reach similar absorbencies, it can be observed that ferulic acid develops its effective blocking ability at 50 μg/ml, whereas with AEDA, 500 μg/ml produce a block equivalent to 50% of that obtained with 50 μg/ml of ferulic acid. To produce similar blocking intensities, the necessary concentrations of AEDA must be 10 to 50 times higher than with ferulic acid.

[3] abbreviates: EDA 300 mg/ml or ferulic acid 0.5% topical, p < 0.01 versus Vehicle.

SMILES strings stand for the structures. “And” between values parts separate entries of the source, which are not always exact repeats. Equal values may be shown once. Marks after values point to notes of the source that are not given here.

For `COc1cc(/C=C/C(=O)O)ccc1O` [Ferulic Acid, ferulic acid], in data set [1] (10 animals per group, EDA 300 mg/ml or ferulic acid 0.5% topical, positive control vehicle 32.7 ± 1.52), the “number of sunburnt cells, Average ± S.E.M.” value came out at 5.2 ± 1.08. For the same compound, the “number of sunburnt cells (in words)” value in data set [1] (AEDA 300 mg/ml or ferulic acid 0.5% topical, histology) was “small”. Moreover, the “erythema, % inhibition versus Positive Control Vehicle (suppression, subjective criteria)” value in data set [1] (EDA 300 mg/ml or ferulic acid 0.5% topical) is listed as 90%. Moreover, the “erythema, % Protected animals” value stood at 70%* in data set [1] (setting [3]) and 70% in data set [1] (EDA 300 mg/ml or ferulic acid 0.5% topical, p < 0.01 versus Vehicle, listed as ferulic acid). Moreover, in data set [1] (setting [3]), the “sunburnt cells, % inhibition versus Positive Control Vehicle” value came to 84.1%*. Moreover, the “presence or absence of erythema or its manifestations in the treated area, per animal” value in data set [1] (individual animals 1-10, EDA 300 mg/ml or ferulic acid 0.5% topical, 24 hours after UVB exposure) was “− (6×) and + (3×)”. Further, in data set [1] (individual animals 1-10, EDA gel 300 mg/ml or ferulic acid gel 0.5%, 100 μl topical twice daily for 3 days, UVB approx. 2.5 kJ/m2, 24 hours after exposure), the “number of sunburnt cells per animal (sum of five counts)” value was 8 and 4 (2×) and 3 (2×) and 2 and 10 and 0 and 11 and 7. Further, the “concentration at which effective UV blocking ability develops” value in data set [2] came to 50 µg/mL.
